Measurements reported in ChEMBL document CHEMBL3217601, “Optimized glucuronidation of dual pharmacology -2 agonists/M3 antagonists for the treatment of COPD” (Medchemcomm, 2011).
Calls of active or inactive are those of the source. The rule behind the calls is not given here.

Experiments:
[1] = Clearance in rat at 0.2 mg/kg, po; assay type: ADME, organism-based; design: dose 0.2 mg/kg, route oral; details: in vivo
[2] = system: Salmonella typhimurium; test: Genotoxicity in Salmonella typhimurium assessed by Ames test; assay type: toxicity, organism-based; details: salmonella enterica subsp. enterica serovar typhimurium
[3] = AUC in rat at 2 mg/kg, iv; assay type: ADME, organism-based; design: dose 2 mg/kg, route intravenous; details: plasma
[4] = system: Canis familiaris; test: Bronchodilatory activity in intratracheally dosed dog assessed as inhibition of methacholine-induced bronchoconstriction in presence of propranolol; assay type: functional, organism-based; details: Canis lupus familiaris
[5] = species: Cavia porcellus; test: Modulation of beta-2 adrenoceptor/muscarinic M3 receptor in guinea pig trachea assessed as time taken for muscle tone at submaximal concentration of compound to recover by 50% of inhibition induced; assay type: tissue-based
[6] = Clearance in rat at 2 mg/kg, iv; assay type: ADME, organism-based; design: dose 2 mg/kg, route intravenous; details: in vivo
[7] = Drug metabolism in human hepatocytes assessed as formation of phenol glucuronide and sulfate metabolite by LC/MS/MS analysis; assay type: ADME, cell-based, Hepatocyte
[8] = species: Cavia porcellus; test: Bronchodilatory activity in guinea pig in presence of propranolol; assay type: functional, organism-based
[9] = species: Cavia porcellus; test: Bronchodilatory activity in guinea pig in presence of NK2 agonist BANA; assay type: functional, organism-based
[10] = molecular target: T1, Beta-2 adrenergic receptor (Homo sapiens, UniProt P07550); test: Agonist activity at human beta-2 adrenoceptor expressed in CHO cells assessed as stimulation of intracellular cAMP production; assay type: functional, cell-based
Target sequence in this assay (P07550 whole entry): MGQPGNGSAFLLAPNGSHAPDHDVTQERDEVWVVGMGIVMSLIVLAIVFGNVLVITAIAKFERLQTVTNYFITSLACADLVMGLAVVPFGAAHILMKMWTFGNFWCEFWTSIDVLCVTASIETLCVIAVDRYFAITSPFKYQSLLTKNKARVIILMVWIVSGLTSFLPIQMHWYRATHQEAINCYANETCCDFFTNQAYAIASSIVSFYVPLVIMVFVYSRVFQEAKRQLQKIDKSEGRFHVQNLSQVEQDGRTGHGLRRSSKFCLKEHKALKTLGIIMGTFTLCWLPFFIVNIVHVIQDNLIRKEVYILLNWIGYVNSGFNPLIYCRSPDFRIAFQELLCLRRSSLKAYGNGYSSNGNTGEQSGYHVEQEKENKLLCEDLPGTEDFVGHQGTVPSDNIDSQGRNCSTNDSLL

[11] = species: Oryctolagus cuniculus; test: Toxicity in rabbit cough model; assay type: organism-based; details: in vivo
[12] = system: Canis familiaris; test: Bronchodilatory activity in intratracheally dosed dog assessed as duration of inhibition of methacholine-induced bronchoconstriction; assay type: functional, Canis lupus familiaris
[13] = system: Canis familiaris; test: Bronchodilatory activity in intratracheally dosed dog assessed as inhibition of methacholine-induced bronchoconstriction in presence of NK2 agonist BANA; assay type: functional, organism-based; details: Canis lupus familiaris
[14] = molecular target: Muscarinic acetylcholine receptor M3 (Cavia porcellus) (UniProt Q8VH26); test: Antagonist activity at muscarinic M3 receptor in guinea pig trachea assessed as time taken for muscle tone at submaximal concentration of compound to recover by 50% of inhibition induced in presence of propranolol
[15] = system: Canis familiaris; test: Bronchodilatory activity in intratracheally dosed dog assessed as inhibition of methacholine-induced bronchoconstriction; assay type: functional, Canis lupus familiaris
[16] = Intrinsic clearance in human liver microsomes assessed as glucuronidation in absence of NADPH and presence of microsomal activator Brij58 and UDPGA
[17] = AUC in rat at 0.2 mg/kg, po; assay type: ADME, organism-based; design: dose 0.2 mg/kg, route oral; details: plasma
[18] = molecular target: T2, Muscarinic acetylcholine receptor M3 (Homo sapiens, UniProt P20309); test: Displacement of [3H]-N-methyl scopolamine from human cloned muscarinic M3 receptor assessed as time taken to reach 50% of total [3H]-NMS
Target sequence in this assay (P20309 whole entry, looked up): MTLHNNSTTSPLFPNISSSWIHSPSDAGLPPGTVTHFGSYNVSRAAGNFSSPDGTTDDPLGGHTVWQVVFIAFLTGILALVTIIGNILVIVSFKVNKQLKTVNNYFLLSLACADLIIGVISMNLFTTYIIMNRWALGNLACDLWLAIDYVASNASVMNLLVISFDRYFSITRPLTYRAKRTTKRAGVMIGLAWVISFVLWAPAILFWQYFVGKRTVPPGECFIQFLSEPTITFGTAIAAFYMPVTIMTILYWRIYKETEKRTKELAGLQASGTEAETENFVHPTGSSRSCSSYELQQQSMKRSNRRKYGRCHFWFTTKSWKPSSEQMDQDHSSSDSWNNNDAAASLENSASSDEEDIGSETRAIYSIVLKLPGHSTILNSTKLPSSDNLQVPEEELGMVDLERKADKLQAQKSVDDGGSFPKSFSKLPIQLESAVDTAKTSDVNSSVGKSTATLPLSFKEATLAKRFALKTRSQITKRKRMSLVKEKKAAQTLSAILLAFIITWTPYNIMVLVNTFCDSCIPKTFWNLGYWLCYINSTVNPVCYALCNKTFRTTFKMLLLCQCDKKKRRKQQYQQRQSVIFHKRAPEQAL

[19] = molecular target: T2, Muscarinic acetylcholine receptor M3; test: Displacement of [3H]-N-methyl scopolamine from human cloned muscarinic M3 receptor
Target sequence in this assay (P20309 whole entry): as the sequence (P20309 whole entry, looked up) above

[20] = Drug metabolism of the compound in human liver microsomes assessed as glucuronidation in absence of NADPH and presence of microsomal activator Brij58 and UDPGA
[21] = Stability of the compound at 70 degC and 75% relative humidity assessed as impurity after 7 days; assay type: physicochemical; details: 168 h
[22] = Half life in rat at 0.2 mg/kg, po; assay type: ADME, organism-based; design: dose 0.2 mg/kg, route oral; details: in vivo
[23] = Modulation of beta-2 adrenoceptor/muscarinic M3 receptor in guinea pig trachea assessed as inhibition of electric field stimulated muscle contraction by measuring release of endogenous acetylcholine; assay type: tissue-based, Cavia porcellus
[24] = AUC in guinea pig at 0.2 mg/kg, po; assay type: ADME, organism-based, Cavia porcellus; design: dose 0.2 mg/kg, route oral; details: plasma
[25] = molecular target: T1, Beta-2 adrenergic receptor; test: Ratio of EC50 for human beta-2 adrenoceptor measured after drug washout to EC50 for human beta-2 adrenoceptor
Target sequence in this assay (P07550 whole entry, looked up): as the sequence (P07550 whole entry) above

[26] = Genotoxicity in micronucleus (unknown origin)
[27] = Clearance in guinea pig at 0.2 mg/kg, po; assay type: ADME, organism-based, Cavia porcellus; design: dose 0.2 mg/kg, route oral; details: in vivo
[28] = molecular target: Muscarinic acetylcholine receptor M3 (Cavia porcellus, UniProt Q8VH26); test: Antagonist activity at muscarinic M3 receptor in guinea pig trachea assessed as inhibition of electric field stimulated muscle contraction by measuring release of endogenous acetylcholine in presence of propranolol
[29] = molecular target: Beta-1 adrenergic receptor (Homo sapiens, UniProt P08588); test: Agonist activity at beta-1 adrenoceptor (unknown origin)
[30] = molecular target: Beta-2 adrenergic receptor (Cavia porcellus, UniProt Q8K4Z4); test: Agonist activity at beta-2 adrenoceptor in guinea pig trachea assessed as inhibition of histamine-induced muscle contraction
[31] = Half life in guinea pig at 0.2 mg/kg, po; assay type: ADME, organism-based, Cavia porcellus; design: dose 0.2 mg/kg, route oral; details: in vivo

Sequence of Beta-1 adrenergic receptor (P08588 whole entry): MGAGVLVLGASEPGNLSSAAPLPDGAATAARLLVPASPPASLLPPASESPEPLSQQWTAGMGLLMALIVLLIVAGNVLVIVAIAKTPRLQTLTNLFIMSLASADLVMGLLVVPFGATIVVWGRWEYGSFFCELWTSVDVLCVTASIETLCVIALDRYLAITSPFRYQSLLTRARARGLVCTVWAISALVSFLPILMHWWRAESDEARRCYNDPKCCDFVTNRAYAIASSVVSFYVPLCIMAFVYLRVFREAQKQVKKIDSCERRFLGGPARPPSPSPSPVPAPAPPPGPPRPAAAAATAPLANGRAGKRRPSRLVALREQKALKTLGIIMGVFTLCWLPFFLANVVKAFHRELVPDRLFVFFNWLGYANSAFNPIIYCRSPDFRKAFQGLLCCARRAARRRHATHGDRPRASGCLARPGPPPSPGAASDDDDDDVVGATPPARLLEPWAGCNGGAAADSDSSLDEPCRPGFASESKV
Sequence of Muscarinic acetylcholine receptor M3 (Cavia porcellus, UniProt Q8VH26) (Q8VH26 whole entry): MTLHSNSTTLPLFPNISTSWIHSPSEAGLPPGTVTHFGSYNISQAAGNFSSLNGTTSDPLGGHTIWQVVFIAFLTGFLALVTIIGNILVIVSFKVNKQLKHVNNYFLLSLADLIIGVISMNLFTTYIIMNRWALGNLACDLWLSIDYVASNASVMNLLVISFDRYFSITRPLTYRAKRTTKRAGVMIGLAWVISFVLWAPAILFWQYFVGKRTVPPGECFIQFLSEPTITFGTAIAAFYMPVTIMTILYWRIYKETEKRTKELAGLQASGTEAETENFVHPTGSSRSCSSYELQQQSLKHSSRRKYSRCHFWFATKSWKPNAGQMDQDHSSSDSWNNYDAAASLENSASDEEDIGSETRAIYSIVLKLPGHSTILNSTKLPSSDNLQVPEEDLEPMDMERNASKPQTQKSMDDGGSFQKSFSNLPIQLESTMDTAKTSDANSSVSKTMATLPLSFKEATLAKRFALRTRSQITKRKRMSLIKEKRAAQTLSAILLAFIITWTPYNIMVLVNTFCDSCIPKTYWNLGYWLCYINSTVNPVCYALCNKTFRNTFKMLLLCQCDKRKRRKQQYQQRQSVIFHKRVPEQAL
Sequence of Muscarinic acetylcholine receptor M3 (Cavia porcellus) (Q8VH26 1-587): as the sequence (Q8VH26 whole entry) above
Sequence of Beta-2 adrenergic receptor (Cavia porcellus, UniProt Q8K4Z4) (Q8K4Z4 whole entry): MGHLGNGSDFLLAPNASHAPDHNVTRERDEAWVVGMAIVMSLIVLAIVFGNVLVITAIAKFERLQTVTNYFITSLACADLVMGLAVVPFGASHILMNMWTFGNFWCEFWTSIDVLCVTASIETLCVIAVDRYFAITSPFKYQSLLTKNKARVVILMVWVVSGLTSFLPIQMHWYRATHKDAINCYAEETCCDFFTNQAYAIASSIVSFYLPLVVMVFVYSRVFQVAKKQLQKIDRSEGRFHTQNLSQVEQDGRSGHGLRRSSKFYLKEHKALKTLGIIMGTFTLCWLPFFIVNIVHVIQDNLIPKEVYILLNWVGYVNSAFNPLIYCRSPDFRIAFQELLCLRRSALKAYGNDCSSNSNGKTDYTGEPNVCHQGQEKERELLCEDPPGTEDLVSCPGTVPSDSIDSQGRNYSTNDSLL

CS(=O)(=O)Nc1cc([C@@H](O)CNCCCCCCCCCN2CCC(OC(=O)Nc3ccccc3-c3ccc(O)c(Cl)c3)CC2)ccc1O
CL/F [1]: 14 mL/min/kg | Activity [2]: Non-toxic | AUC [3]: 125 ng·h/mL | Activity [4]: Active | TIME [5]: > 11 h | clearance [6]: 164 mL/min/kg | Drug metabolism [7]: Active | Activity [8]: Active | Activity [9]: Active | EC50 [10]: 3.7 nM | Activity [11]: Non-toxic | Time [12]: 14 h | Activity [13]: Active | TIME [14]: > 11 h | ID50 [15]: 50 µg | microsomal CLint [16]: 23 µL/min/mg | AUC [17]: 256 ng·h/mL | TIME [18]: 1.95 h | Ki [19]: 0.73 nM | microsomal CLint [20]: 24 µL/min/mg | Stability [21]: Stable | half-life [22]: 1.6 h | EC50 [23]: 7.3 nM | AUC [24]: 920 ng·h/mL | Ratio EC50 [25]: 1.5 | Activity [26]: Non-toxic | CL/F [27]: 3.6 mL/min/kg | EC50 [28]: 12 nM | EC50 [29]: > 10000 nM | EC50 [30]: 5.8 nM | half-life [31]: 0.8 h
